Tests used:
H4IIE cells = test: lactate dehydrogenase (LDH) release toxicity assay; type: cell-based; conditions: 96 hours; FIG. 5
Description: To address the issue of MIBG toxicity, lactate dehydrogenase (LDH) release was measured after incubation with MIBG or MIBA. Quiescent H4IIE cells were prepared in 96-well dishes and treated with various concentrations of either MIBG or MIBA for 96 hours. To quantify the release of LDH from the cells, which only occurs if the cells are damaged or killed by the treatment, 100 μl of culture medium was transferred to a fresh dish. To this was added 100 μl of dye/catalyst mixture (Boehringer Mannheim cytotoxicity detection kitTM), and the samples were subsequently incubated for 30 minutes at 37° C. Absorbance of the solution was monitored at 490 nm. The colour intensity indicates the relative LDH content in the test samples. […] As a consequence, it is speculated that changes in LDH release may be coupled to non-toxic and reversible alterations in mitochondrial metabolism or membrane integrity as a result of MIBG treatment.

[1] = tested on: porcine coronary arteries; test: coronary artery organ culture after balloon angioplasty (neointimal index); conditions: 25 μM in culture media over 14 days; FIG. 10
Source text: Although smooth muscle cell cultures can be used to determine the ability of a compound to inhibit proliferation, these cells are not good indicators of a compound's ability to prevent restenosis. This statement stems from the fact that several processes, including cell migration, proliferation and synthesis of ECM degrading enzymes, must be coordinately activated in order for restenosis to occur. A novel organ culture system has therefore been developed in order to test the effectiveness of MIBG and other compounds at preventing restenosis (Wilson et al, 1999, Cardiac Res 42: 761-772). In brief, hearts are transported from the abattoir to the laboratory on ice. The left descending coronary artery is exposed and a balloon catheter is inserted past the first bifurcation. The balloon is inflated, and after 1 minute is deflated and withdrawn. The damaged region (approximately 20 mm in length) is excised, cut into 4 pieces of 5 mm and each piece is placed into an individual well of a culture dish. These segments can be maintained in media containing 20% serum for up to 21 days. Upon harvest of the tissue, typically after 14 days, the vessel segments are placed into resin for histological analysis. Sections are prepared from vessel segments after removal of the first 1.5 mm. […] This file is imported into SigmaScan™, and staining in the areas of the intimal and medial layers quantified. […]

porcine femoral artery = test: balloon angioplasty of the porcine femoral artery in vivo; design: species or system pigs; conditions: 14 days
Source text: To test the effectiveness of MIBG under in vivo conditions, this compound was applied to the femoral artery after balloon angioplasty. This model provided a means of testing both MIBG and the method of application. Specifically, male castrated farm pigs (25-30 kg) were anaesthetized and maintained on isoflurane throughout the procedure. With the pig in a supine position, the left femoral artery was exposed from the bifurcation of the femoral and superficial femoral arteries to the point of insertion of the femoral artery into the groin. A mixture of nitroglycerin and papaverine was applied to the vessel and the area was covered with a saline-soaked sponge to keep the tissues moist. The right femoral artery was also exposed, treated and covered with a sponge. The left femoral was then clamped at both groin insertion (proximal) and bifurcation (distal) points, and an arteriotomy made at the bifurcation. The balloon (6.0×20 mm) was inserted through the arteriotomy in a retrograde manner (i.e. toward the groin) to a position 20 mm from the arteriotomy and the proximal clamp removed. The balloon was inflated for 1 minute, deflated and carefully removed, and the arteriotomy was closed with 6.0 ProleneTM suture. MIBG in combination with a biocompatible glue, in this example, Tisseel®, was applied to the surface of the vessel extending from the arteriotomy to the proximal region past the site of balloon inflation. The fibrin glue ensured that MIBG slowly diffused into the vessel. Furthermore, the fibrin glue helps to retain MIBG at the site for several days. The right femoral was handled as described above. […] The extent of restenosis was subsequently monitored by morphometry. […] Digital images were captured with a DAGE-MTI CCD camera and analyzed with SigmaScan Software. The neointimal and medial areas are quantified and used to calculate the neointimal index: neointimal area/medial area. […] Even though the vehicle cannot be detected after 14 days, we conclude that it remains for the minimum period necessary.

[2] = tested on: porcine coronary artery smooth muscle cells

meta-iodobenzylguanidine [MIBG]
concentration at which increased LDH release is detectable (H4IIE cells): 50 µM | neointimal index [1]: effectively reduces the neointimal index to control values | restenosis after balloon angioplasty (porcine femoral artery; 25 mM in a 1.0 ml Tisseel bolus applied to vessel surface, FIGS. 20 and 21): effectively prevents restenosis | medial fibrosis or cell loss (porcine femoral artery; 25 mM in a 1.0 ml Tisseel bolus, FIG. 20): no evidence of medial fibrosis | levels at which cytotoxic [2]: ≥ 200 µM | decrease of basal DNA synthesis ([2]; MIBG alone, highest concentration tested, FIG. 8): ≤ 40 % of the control | concentrations inhibiting stimulation of DNA and RNA synthesis ([2]; stimulation by angiotensin II and serum, FIGS. 6 and 7): 20 to 50 µM

Source: US6544541B1, “Devices and compounds for treating arterial restenosis” (Cardiovascular Solutions, Inc., priority 1999, dated 2003)
